Data reported in ChEMBL document CHEMBL1201862, “PubChem BioAssay data set” (2004).
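Dose response: 5 concentrations. Exposure: 48 h. Format: 96-well plates. Endpoint: linear interpolation; highest concentration if not reached. GI50 marks 50% less growth.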 The source made the active and inactive calls. Rule as the data show it: active = GI50 up to about 1.1 µM and inactive = higher.

How the values were obtained:
Assay in all cases: NCI anticancer screen, dose series, 48 h
786-0 = system: 786-0
UO-31 = system: UO-31
SF-295 = system: SF-295
HOP-92 = system: HOP-92
MOLT-4 = system: MOLT-4
HOP-62 = system: HOP-62
Malme-3M = system: Malme-3M
M14 = system: M14
SK-OV-3 = system: SK-OV-3
OVCAR-8 = system: OVCAR-8
SW-620 = system: SW-620
A498 = system: A498
HCT-116 = system: HCT-116
EKVX = system: EKVX
ACHN = system: ACHN
A549 = system: A549
RPMI-8226 = system: RPMI-8226
SN12C = system: SN12C
HT-29 = system: HT-29
LOX IMVI = system: LOX IMVI
SF-268 = system: SF-268
PC-3 = system: PC-3
CCRF-CEM = system: CCRF-CEM
OVCAR-5 = system: OVCAR-5
HCT-15 = system: HCT-15
DU-145 = system: DU-145
NCI-H226 = system: NCI-H226
NCI-H23 = system: NCI-H23
NCI/ADR-RES = system: NCI/ADR-RES
K562 = system: K562
MDA-MB-435 = system: MDA-MB-435
MDA-N = system: MDA-N
SNB-19 = system: SNB-19
SK-MEL-28 = system: SK-MEL-28
Hs-578T = system: Hs-578T
IGROV-1 = system: IGROV-1
MCF7 = system: MCF7
OVCAR-4 = system: OVCAR-4
SNB-75 = system: SNB-75
SK-MEL-2 = system: SK-MEL-2
COLO 205 = system: COLO 205
UACC-62 = system: UACC-62
TK-10 = system: TK-10
KM12 = system: KM12
UACC-257 = system: UACC-257
SK-MEL-5 = system: SK-MEL-5
SR = system: SR
U-251 = system: U-251
OVCAR-3 = system: OVCAR-3
MDA-MB-231 = system: MDA-MB-231

CCOC(=O)[C@@H]1OC(c2ccccc2)O[C@H]1C(=O)OCC
GI50 (786-0): > 100 µM (inactive) | GI50 (UO-31): > 100 µM (inactive) | GI50 (SF-295): > 100 µM (inactive) | GI50 (HOP-92): > 100 µM (inactive) | GI50 (MOLT-4): > 100 µM (inactive) | GI50 (HOP-62): > 100 µM (inactive) | GI50 (Malme-3M): > 100 µM (inactive) | GI50 (M14): > 100 µM (inactive) | GI50 (SK-OV-3): > 100 µM (inactive) | GI50 (OVCAR-8): > 100 µM (inactive) | GI50 (SW-620): > 100 µM (inactive) | GI50 (A498): > 100 µM (inactive) | GI50 (HCT-116): > 100 µM (inactive) | GI50 (EKVX): > 100 µM (inactive) | GI50 (ACHN): > 100 µM (inactive) | GI50 (A549): > 100 µM (inactive) | GI50 (RPMI-8226): > 100 µM (inactive) | GI50 (SN12C): > 100 µM (inactive) | GI50 (HT-29): > 100 µM (inactive) | GI50 (LOX IMVI): > 100 µM (inactive) | GI50 (SF-268): > 100 µM (inactive) | GI50 (PC-3): > 100 µM (inactive) | GI50 (CCRF-CEM): > 100 µM (inactive) | GI50 (OVCAR-5): > 100 µM (inactive) | GI50 (HCT-15): > 100 µM | GI50 (DU-145): > 100 µM (inactive) | GI50 (NCI-H226): > 100 µM (inactive) | GI50 (NCI-H23): > 100 µM (inactive) | GI50 (NCI/ADR-RES): > 100 µM (inactive) | GI50 (K562): > 100 µM (inactive) | GI50 (MDA-MB-435): > 100 µM (inactive) | GI50 (MDA-N): > 100 µM (inactive) | GI50 (SNB-19): > 100 µM (inactive) | GI50 (SK-MEL-28): > 100 µM (inactive) | GI50 (Hs-578T): > 100 µM (inactive) | GI50 (IGROV-1): > 100 µM (inactive) | GI50 (MCF7): > 100 µM (inactive) | GI50 (OVCAR-4): > 100 µM (inactive) | GI50 (SNB-75): > 100 µM (inactive) | GI50 (SK-MEL-2): > 100 µM (inactive) | GI50 (COLO 205): > 100 µM (inactive) | GI50 (UACC-62): > 100 µM (inactive) | GI50 (TK-10): > 100 µM (inactive) | GI50 (KM12): > 100 µM (inactive) | GI50 (UACC-257): > 100 µM (inactive) | GI50 (SK-MEL-5): > 100 µM (inactive) | GI50 (SR): > 100 µM (inactive) | GI50 (U-251): > 100 µM (inactive) | GI50 (OVCAR-3): > 100 µM (inactive) | GI50 (MDA-MB-231): > 100 µM (inactive)

COc1ccc(CNc2nc3cc(N)cc(N)c3nc2-c2ccccc2)cc1
GI50 (RPMI-8226): 4.13 µM (inactive)
